Results: US12594268B2, “Methods of treating Fabry disease in patients having a mutation in the GLA gene” (Amicus Therapeutics, Inc., priority 2018, dated 2026)
Residue numbers refer to the chain shown, from its start.

Assays:
Format in all cases: cell-based
α-Gal A mutant form G35A = molecular target: T1, α-Gal A mutant form G35A (Homo sapiens, UniProt P06280, G35A); assay: α-Gal A activity in lysates of transfected HEK-293 cells, G35A
T1 construct: expressed in transfected cells; host or cells: HEK-293
T1 sequence (P06280 32-429 G35A): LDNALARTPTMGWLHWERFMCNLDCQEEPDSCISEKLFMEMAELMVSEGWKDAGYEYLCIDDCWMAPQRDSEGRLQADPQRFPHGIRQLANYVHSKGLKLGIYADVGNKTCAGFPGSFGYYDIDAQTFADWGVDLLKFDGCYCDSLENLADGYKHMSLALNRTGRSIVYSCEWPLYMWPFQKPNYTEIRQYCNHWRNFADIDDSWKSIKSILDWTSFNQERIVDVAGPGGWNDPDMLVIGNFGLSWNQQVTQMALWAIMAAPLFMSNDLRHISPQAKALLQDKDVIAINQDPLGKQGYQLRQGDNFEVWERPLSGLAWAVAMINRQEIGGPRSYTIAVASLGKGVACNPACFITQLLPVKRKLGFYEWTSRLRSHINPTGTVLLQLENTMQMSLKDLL
Description: (§1) Baseline and 10 μM migalastat α-Gal A activity: Differences in the α-Gal A activity between lysates incubated in the absence and presence of 10 μM migalastat were determined using a one-tailed, Mann Whitney U test; an increase at 10 μM migalastat with a p<0.05 was considered significant.
(§2) 10 μM migalastat α-Gal A activity (% WT)=(α-Gal A activity in mutant transfected cell lysates incubated with 10 μM migalastat÷α-Gal A activity in wild-type transfected cell lysates without migalastat)*100.
(§3) Absolute increase (% WT)=is the 10 μM migalastat α-Gal A activity (% WT) minus the baseline α-Gal A activity (% WT).
(§4) Relative increase is the 10 μM migalastat α-Gal A activity in mutant transfected cell lysates÷baseline α-Gal A activity in mutant transfected cell lysates incubated without migalastat.

α-Gal A mutant form N53K = molecular target: T2, α-Gal A mutant form N53K (Homo sapiens, UniProt P06280, N53K); assay: α-Gal A activity in lysates of transfected HEK-293 cells, N53K
T2 construct: expressed in transfected cells; host or cells: HEK-293
T2 sequence (P06280 32-429 N53K): T1 sequence (P06280 32-429 G35A) with A4G, N22K
Description: as §1, §2, §3, §4

α-Gal A mutant form V22G = molecular target: T3, α-Gal A mutant form V22G (Homo sapiens, UniProt P06280); assay: α-Gal A activity in lysates of transfected HEK-293 cells, V22G
T3 construct: expressed in transfected cells; host or cells: HEK-293
T3 sequence (P06280 32-429): T1 sequence (P06280 32-429 G35A) with A4G
Description: as §1, §2, §3, §4

[1] = molecular target: T4, α-Gal A mutant form A156S (Homo sapiens, UniProt P06280, A156S); assay: α-Gal A activity in lysates of transfected HEK-293 cells, A156S
T4 construct: expressed in transfected cells; host or cells: HEK-293
T4 sequence (P06280 32-429 A156S): T1 sequence (P06280 32-429 G35A) with A4G, A125S
Description: as §1, §2, §3, §4

[2] = molecular target: T5, α-Gal A mutant form S238G (Homo sapiens, UniProt P06280, S238G); assay: α-Gal A activity in lysates of transfected HEK-293 cells, S238G
T5 construct: expressed in transfected cells; host or cells: HEK-293
T5 sequence (P06280 32-429 S238G): T1 sequence (P06280 32-429 G35A) with A4G, S207G
Description: as §1, §2, §3, §4

[3] = 10 μM migalastat minus baseline
[4] = 10 μM migalastat ÷ baseline activity
[5] = HEK-293 lysates, 10 μM migalastat, 5 days, mean ± SEM

## OC[C@H]1NC[C@H](O)[C@@H](O)[C@H]1O [migalastat, (2R,3S,4R,5S)-2-(hydroxymethyl) piperdine-3,4,5-triol]
α-Gal A mutant form G35A; [3]
  Absolute increase (% WT): 31.0 % WT
α-Gal A mutant form G35A; [4]
  Relative increase: 1.61
α-Gal A mutant form G35A; HEK-293 lysates, 10 nM migalastat as printed, 5 days, mean ± SEM
  10 nM migalastat α-Gal A activity: 31694 ± 1949 nmol/mg/h
α-Gal A mutant form G35A; [5]
  10 μM migalastat α-Gal A activity (% WT): 82.1 ±5.6 % WT
α-Gal A mutant form N53K; [3]
  Absolute increase (% WT): 24.0 % WT
α-Gal A mutant form N53K; [4]
  Relative increase: 2.70
α-Gal A mutant form N53K; [5]
  10 μM migalastat α-Gal A activity: 13895 ± 1270 nmol/mg/h
  10 μM migalastat α-Gal A activity (% WT): 38.6 ± 2.5 % WT
α-Gal A mutant form V22G; [3]
  Absolute increase (% WT): 9.0 % WT
α-Gal A mutant form V22G; [4]
  Relative increase: 1.53
α-Gal A mutant form V22G; [5]
  10 μM migalastat α-Gal A activity: 7150 ± 700 nmol/mg/h
  10 μM migalastat α-Gal A activity (% WT): 24.6 ± 2.8 % WT
[1]; [3]
  Absolute increase (% WT): 18.4 % WT
[1]; [4]
  Relative increase: 1.29
[1]; [5]
  10 μM migalastat α-Gal A activity: 31597 ± 2293 nmol/mg/h
  10 μM migalastat α-Gal A activity (% WT): 85.1 ± 53 % WT
[2]; [3]
  Absolute increase (% WT): 67.7 % WT
[2]; [4]
  Relative increase: 4.26
[2]; [5]
  10 μM migalastat α-Gal A activity: 25106 ± 1611 nmol/mg/h
  10 μM migalastat α-Gal A activity (% WT): 86.4 ± 7.2 % WT
